Calls of active or inactive are those of the source. The calls are words filed in the database; no cut-off is given here.
Assays:
NCI-H460 [1] = test: Induction of apoptosis in human NCI-H460 cells assessed as early apoptotic cells at 10 uM after 24 hrs by Annexin V/propidium iodide staining-based flow cytometry (reference value: 6.8%); type: functional
NCI-H460 [2] = test: Induction of apoptosis in human NCI-H460 cells assessed as early apoptotic cells at 8 uM after 48 hrs by Annexin V/propidium iodide staining-based flow cytometry (reference value: 6.8%); type: functional
NCI-H460 [3] = test: Cell cycle arrest in human NCI-H460 cells assessed as accumulation at S phase at 5 uM after 48 hrs by Rnase A/propidium iodide staining-based flow cytometry (reference value: 19.41%); type: functional
A549 = test: cells; conditions: Homo sapiens, A549, 48 h
Description: Cytotoxicity against human A549 cells after 48 hrs by MTT assay

NCI-H460 [4] = test: Induction of apoptosis in human NCI-H460 cells assessed as downregulation of Bcl-2 mRNA expression after 24 hrs by qRT-PCR analysis; type: functional, cell-based
NCI-H460 [5] = test: Induction of apoptosis in human NCI-H460 cells assessed as caspase-9 activation after 24 hrs by qRT-PCR analysis; type: functional, cell-based
NCI-H460 [6] = test: Induction of apoptosis in human NCI-H460 cells assessed as karyopyknosis and chromatin condensation at 8 uM after 12 to 48 hrs by Hoechst 33258 staining-based fluorescence microscopy relative to control; type: functional, cell-based
NCI-H460 [7] = test: Induction of apoptosis in human NCI-H460 cells assessed as change in mitochondrial membrane potential at 8 uM after 12 to 48 hrs by JC-1 staining-based fluorescence microscopy relative to control; type: functional, cell-based
NCI-H460 [8] = test: Induction of apoptosis in human NCI-H460 cells assessed as upregulation of AIF mRNA expression after 24 hrs by qRT-PCR analysis; type: functional, cell-based
NCI-H460 [9] = test: Induction of apoptosis in human NCI-H460 cells assessed as early apoptotic cells at 8 uM by Annexin V/propidium iodide staining-based flow cytometry; type: functional, cell-based; conditions: TDE = time-dependent effect
CNE = test: Cytotoxicity against human CNE cells after 48 hrs by MTT assay; type: functional, cell-based
NCI-H460 [10] = test: Induction of apoptosis in human NCI-H460 cells assessed as late apoptotic cells at 8 uM after 24 hrs by Annexin V/propidium iodide staining-based flow cytometry (reference value: 14.1%); type: functional
NCI-H460 [11] = test: Induction of apoptosis in human NCI-H460 cells assessed as viable cells at 20 uM after 24 hrs by Annexin V/propidium iodide staining-based flow cytometry (reference value: 72.2%); type: functional; conditions: NCI-H460, 24 h, read-out: Activity
NCI-H460 [12] = test: Induction of apoptosis in human NCI-H460 cells assessed as early apoptotic cells at 8 uM after 24 hrs by Annexin V/propidium iodide staining-based flow cytometry (reference value: 6.8%); type: functional
NCI-H460 [13] = test: Induction of apoptosis in human NCI-H460 cells assessed as necrotic cells after 24 hrs by Annexin V/propidium iodide staining-based flow cytometry; type: functional, cell-based
NCI-H460 [14] = test: Induction of apoptosis in human NCI-H460 cells assessed as upregulation of cytochrome C mRNA expression after 24 hrs by qRT-PCR analysis; type: functional, cell-based
HCT-116 = test: cells; conditions: Homo sapiens, HCT-116, 48 h
Description: Cytotoxicity against human HCT116 cells after 48 hrs by MTT assay

NCI-H460 [15] = test: Cell cycle arrest in human NCI-H460 cells assessed as accumulation at G1 phase at 8 uM after 48 hrs by Rnase A/propidium iodide staining-based flow cytometry (reference value: 46.69%); type: functional
NCI-H460 [16] = test: Induction of apoptosis in human NCI-H460 cells assessed as late apoptotic cells at 5 uM after 24 hrs by Annexin V/propidium iodide staining-based flow cytometry (reference value: 14.1%); type: functional
NCI-H460 [17] = test: Induction of apoptosis in human NCI-H460 cells assessed as karyopyknosis and chromatin condensation after 24 hrs by Hoechst 33258 staining-based fluorescence microscopy relative to control; type: functional, cell-based
NCI-H460 [18] = test: Induction of apoptosis in human NCI-H460 cells assessed as change in mitochondrial membrane potential after 24 hrs by JC-1 staining-based fluorescence microscopy relative to control; type: functional, cell-based
NCI-H460 [19] = test: Cell cycle arrest in human NCI-H460 cells assessed as accumulation at G2 phase at 5 uM after 48 hrs by Rnase A/propidium iodide staining-based flow cytometry (reference value: 33.9%); type: functional
NCI-H460 [20] = test: Induction of apoptosis in human NCI-H460 cells assessed as late apoptotic cells after 24 hrs by Annexin V/propidium iodide staining-based flow cytometry; type: functional, cell-based
MGC-803 = test: Cytotoxicity against human MGC803 cells after 48 hrs by MTT assay; type: functional, cell-based; conditions: MGC-803, 48 h
NCI-H460 [21] = test: Induction of apoptosis in human NCI-H460 cells assessed as late apoptotic cells at 8 uM by Annexin V/propidium iodide staining-based flow cytometry; type: functional, cell-based; conditions: TDE = time-dependent effect
NCI-H460 [22] = test: Induction of apoptosis in human NCI-H460 cells assessed as karyopyknosis and chromatin condensation at 8 uM by Hoechst 33258 staining-based fluorescence microscopy relative to control; type: functional, cell-based; conditions: TDE = time-dependent effect
NCI-H460 [23] = test: Cell cycle arrest in human NCI-H460 cells assessed as accumulation at G2 phase at 8 uM after 48 hrs by Rnase A/propidium iodide staining-based flow cytometry (reference value: 33.9%); type: functional
NCI-H460 [24] = test: Induction of apoptosis in human NCI-H460 cells assessed as increase in intracellular ROS generation at 5 to 20 uM after 24 hrs by DCFH-DA staining-based fluorescence microscopy; type: functional, cell-based
NCI-H460 [25] = test: Induction of apoptosis in human NCI-H460 cells assessed as early apoptotic cells after 24 hrs by Annexin V/propidium iodide staining-based flow cytometry; type: functional, cell-based
NCI-H460 [26] = test: Induction of apoptosis in human NCI-H460 cells assessed as late apoptotic cells at 20 uM after 24 hrs by Annexin V/propidium iodide staining-based flow cytometry (reference value: 14.1%); type: functional
NCI-H460 [27] = test: Induction of apoptosis in human NCI-H460 cells assessed as necrotic cells at 8 uM after 24 hrs by Annexin V/propidium iodide staining-based flow cytometry (reference value: 6.9%); type: functional
NCI-H460 [28] = test: Cell cycle arrest in human NCI-H460 cells assessed as accumulation at S phase at 8 uM after 24 hrs by Rnase A/propidium iodide staining-based flow cytometry (reference value: 19.41%); type: functional
NCI-H460 [29] = test: Cell cycle arrest in human NCI-H460 cells assessed as accumulation at G1 phase at 8 uM after 12 hrs by Rnase A/propidium iodide staining-based flow cytometry (reference value: 46.69%); type: functional
NCI-H460 [30] = test: Induction of apoptosis in human NCI-H460 cells assessed as late apoptotic cells at 10 uM after 24 hrs by Annexin V/propidium iodide staining-based flow cytometry (reference value: 14.1%); type: functional
NCI-H460 [31] = test: Cytotoxicity against human NCI-H460 cells after 48 hrs by MTT assay; type: functional, cell-based; conditions: NCI-H460, 48 h
NCI-H460 [32] = test: Cell cycle arrest in human NCI-H460 cells assessed as accumulation at G2 phase at 8 uM after 24 hrs by Rnase A/propidium iodide staining-based flow cytometry (reference value: 33.9%); type: functional
NCI-H460 [33] = test: Induction of apoptosis in human NCI-H460 cells assessed as necrotic cells at 20 uM after 24 hrs by Annexin V/propidium iodide staining-based flow cytometry (reference value: 6.9%); type: functional
NCI-H460 [34] = test: Induction of apoptosis in human NCI-H460 cells assessed as early apoptotic cells at 20 uM after 24 hrs by Annexin V/propidium iodide staining-based flow cytometry (reference value: 6.8%); type: functional

CCOP(=O)(OCC)C(NC(=O)C(C)Oc1ccc2c(c1O)C(=O)c1ccccc1C2=O)c1ccccc1OC (stereo not drawn)
Activity (NCI-H460 [1]): 32.4%
Activity (NCI-H460 [2]): 50.2%
Activity (NCI-H460 [3]): 8.74%
IC50 (A549): 12.3 µM
Activity (NCI-H460 [4]): Dose-dependent effect
Activity (NCI-H460 [5]): Dose-dependent effect
Activity (NCI-H460 [6]): Active
Activity (NCI-H460 [7]): Active
Activity (NCI-H460 [8]): Dose-dependent effect
Activity (NCI-H460 [9]): tde
IC50 (CNE): 34.2 µM
Activity (NCI-H460 [10]): 11.1%
viability at 20 µM (NCI-H460 [11]): 30.7%
Activity (NCI-H460 [12]): 38.9%
Activity (NCI-H460 [13]): Dose-dependent effect
Activity (NCI-H460 [14]): Dose-dependent effect
IC50 (HCT-116): 10.5 µM
Activity (NCI-H460 [15]): 68.16%
Activity (NCI-H460 [16]): 8.6%
Activity (NCI-H460 [17]): Dose-dependent effect
Activity (NCI-H460 [18]): Dose-dependent effect
Activity (NCI-H460 [19]): 34.41%
Activity (NCI-H460 [20]): Dose-dependent effect
IC50 (MGC-803): 10.1 µM
Activity (NCI-H460 [21]): tde
Activity (NCI-H460 [22]): tde
Activity (NCI-H460 [23]): 22.97%
Activity (NCI-H460 [24]): Active
Activity (NCI-H460 [25]): Dose-dependent effect
Activity (NCI-H460 [26]): 30.7%
Activity (NCI-H460 [27]): 2.5%
Activity (NCI-H460 [28]): 13.09%
Activity (NCI-H460 [29]): 56.84%
Activity (NCI-H460 [30]): 17.8%
IC50 (NCI-H460 [31]): 9.8 µM
Activity (NCI-H460 [32]): 21.99%
Activity (NCI-H460 [33]): 12.9%
Activity (NCI-H460 [34]): 34.7%

— ChEMBL document CHEMBL3297657, “Synthesis and antitumor activities of novel α-aminophosphonate derivatives containing an alizarin moiety” (Eur J Med Chem, 2014)
